From the supplement of paper PMC10307832

Assays:
Assay in all cases: relative viability (nuclei count vs DMSO), 5 days (fraction); higher = more cells survive
KN-93 + Linsitinib = compound: CN(C/C=C/C1=CC=C(C=C1)Cl)CC2=CC=CC=C2N(CCO)S(=O)(=O)C3=CC=C(C=C3)OC [KN-93] + C[C@]1(O)C[C@@H](c2nc(-c3ccc4ccc(-c5ccccc5)nc4c3)c3c(N)nccn32)C1 [Linsitinib] (partner 1 µM)
In short: (§1)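 Each reported value is a median over duplicate plates. It expresses relative viability: treated-well nuclei count divided by vehicle-well nuclei count. Lung cancer cell lines in 1536-well plates were dosed by pin tool a day after seeding, alone with one drug or with a fixed anchor-drug dose plus five library-drug doses (not always all listed) in √10 steps, and nuclei were counted after 5 days.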

KN-93 + Tozasertib = compound: CN(C/C=C/C1=CC=C(C=C1)Cl)CC2=CC=CC=C2N(CCO)S(=O)(=O)C3=CC=C(C=C3)OC [KN-93] + Cc1cc(Nc2cc(N3CCN(C)CC3)nc(Sc3ccc(NC(=O)C4CC4)cc3)n2)n[nH]1 [Tozasertib] (partner 0.1 µM)
In short: as §1

KN-93 + Dasatinib = compound: CN(C/C=C/C1=CC=C(C=C1)Cl)CC2=CC=CC=C2N(CCO)S(=O)(=O)C3=CC=C(C=C3)OC [KN-93] + Cc1nc(Nc2ncc(C(=O)Nc3c(C)cccc3Cl)s2)cc(N2CCN(CCO)CC2)n1 [Dasatinib] (partner 0.075 µM)
In short: as §1

KN-93 + Vorinostat = compound: CN(C/C=C/C1=CC=C(C=C1)Cl)CC2=CC=CC=C2N(CCO)S(=O)(=O)C3=CC=C(C=C3)OC [KN-93] + O=C(CCCCCCC(=O)Nc1ccccc1)NO [Vorinostat] (partner 1 µM)
In short: as §1

KN-93 + Olaparib = compound: CN(C/C=C/C1=CC=C(C=C1)Cl)CC2=CC=CC=C2N(CCO)S(=O)(=O)C3=CC=C(C=C3)OC [KN-93] + O=C(c1cc(Cc2n[nH]c(=O)c3ccccc23)ccc1F)N1CCN(C(=O)C2CC2)CC1 [Olaparib] (partner 8 µM)
In short: as §1

Cell Line | relative viability (KN-93 + Linsitinib; first compound 0.08 µM) | relative viability (KN-93 + Linsitinib; first compound 0.253 µM) | relative viability (KN-93 + Linsitinib; first compound 2.53 µM) | relative viability (KN-93 + Linsitinib; first compound 8 µM) | relative viability (KN-93 + Tozasertib; first compound 0.08 µM) | relative viability (KN-93 + Tozasertib; first compound 0.253 µM) | relative viability (KN-93 + Tozasertib; first compound 2.53 µM) | relative viability (KN-93 + Tozasertib; first compound 8 µM) | relative viability (KN-93 + Dasatinib; first compound 0.08 µM) | relative viability (KN-93 + Dasatinib; first compound 0.253 µM) | relative viability (KN-93 + Dasatinib; first compound 2.53 µM) | relative viability (KN-93 + Dasatinib; first compound 8 µM) | relative viability (KN-93 + Vorinostat; first compound 0.08 µM) | relative viability (KN-93 + Vorinostat; first compound 0.253 µM) | relative viability (KN-93 + Vorinostat; first compound 2.53 µM) | relative viability (KN-93 + Vorinostat; first compound 8 µM) | relative viability (KN-93 + Olaparib; first compound 0.08 µM) | relative viability (KN-93 + Olaparib; first compound 0.253 µM) | relative viability (KN-93 + Olaparib; first compound 2.53 µM) | relative viability (KN-93 + Olaparib; first compound 8 µM)
COR-L 105 | 0.811 | 0.878 | 1.15 | 0.784 | 0.399 | 0.325 | 0.329 | 0.282 | 0.363 | 0.277 | 0.302 | 0.239 | 0.632 | 0.824 | 0.551 | 0.836 | 0.722 | 0.499 | 0.545 | 0.661
ChaGo-K-1 |  |  |  |  | 0.234 | 0.232 | 0.243 | 0.2 | 0.555 | 0.662 | 0.534 | 0.341 | 0.755 | 0.896 | 0.822 | 0.582 | 0.388 | 0.402 | 0.442 | 0.38
EKVX | 0.959 | 0.872 | 1.03 | 0.748 | 0.378 | 0.48 | 0.369 | 0.301 | 0.42 | 0.429 | 0.358 | 0.389 | 0.642 | 0.653 | 0.655 | 0.585 | 0.761 | 0.558 | 0.802 | 0.669
EMC-BAC-2 | 0.821 | 1 | 0.878 | 0.775 | 0.24 | 0.276 | 0.274 | 0.274 | 0.299 | 0.366 | 0.3 | 0.272 | 0.51 | 0.534 | 0.399 | 0.345 | 0.498 | 0.441 | 0.507 | 0.431
EPLC-272H | 1.15 | 1.27 | 1.21 | 0.871 | 0.234 | 0.213 | 0.317 | 0.227 | 0.32 | 0.452 | 0.274 | 0.206 | 0.436 | 0.212 | 0.274 | 0.152 | 0.466 | 0.681 | 0.913 | 0.267
H3255 | 0.802 | 1.09 | 1.08 | 0.584 | 0.539 | 0.864 | 0.82 | 0.433 | 0.366 | 0.343 | 0.511 | 0.341 | 0.842 | 0.76 | 0.927 | 0.311 | 0.519 | 0.621 | 0.523 | 0.485
HARA | 0.84 | 1.11 | 0.923 | 0.527 | 0.125 | 0.104 | 0.111 | 0.11 | 0.246 | 0.283 | 0.248 | 0.104 | 0.394 | 0.475 | 0.503 | 0.493 | 0.524 | 0.584 | 0.718 | 0.336
